In US10280165B2, “Pyridopyrimidinones and methods of use thereof” (Genentech, Inc., priority 2015, dated 2019) one finds Emax and EC50 data, which are given here for 32 compounds.

The target in this experiment is HEK cells stably transfected with tetracycline inducible hNR1 and hNR2A (Homo sapiens (Human), UniProt Q05586+Q12879). Description: Assay 1: Cell-Based Assay (cytosolic calcium, positive allosteric modulation). Conditions: for Emax: HEK293, scaled relative to 100 μM L-glutamate maximal response (100%) and 0 μM L-glutamate (0%), with 30 μM glycine and 300 nM L-glutamate, read-out: Max %; for EC50: with 30 μM glycine and 300 nM L-glutamate (EC30), given for compounds reaching maximal response plateaus. Here is the method:
Assay 1: Cell-Based Assay
HEK cells stably transfected with tetracycline inducible hNR1 and hNR2A were seeded into clear bottom 384 well poly-D-lysine coated plates (2.5×10^4 cells per well) in Minimum Essential Media (MEM; without L-) including 7.5 μg mL doxycycline and 500 μM (+)-ketamine. The cells were incubated at 37° C. in 5% CO2 for 24 h. For measurement of changes in cytosolic calcium, the seeding media was removed and the cells incubated at 37° C. for 60 min with 1× Becton Dickinson Calcium Assay Kit reagent in Hanks Balanced Salt Solution (HBSS; w/o magnesium, including 1.8 mM calcium, 0.65 mg ml^−1 probenecid and 10 μM (+)-ketamine, pH 7.15) then allowed to equilibrate to rt for 30 min. Concentration-effect curves to Positive Allosteric Modulators (PAMs) were constructed by adding different concentrations (with 30 μM glycine and 300 nM L-glutamate (EC30)) to different wells in HBSS. Compounds were added after a 10 second baseline read and maximum level of relative fluorescence units (RFU) was measured over a 5 min period. Responses were scaled relative to 100 μM L-glutamate maximal response (100%) and 0 μM L-glutamate (0%). EC50 values are provided for compounds reaching maximal response plateaus, and the max % (EC50 (--)) only if no plateau was reached.
A four-parameter Hill equation was fitted to individual concentration-effect curves:
[formula] in which Y, S0, Sinf, AC50, n and c were effect, lower-asymptote, upper-asymptote, mid-point location, slope parameter, and concentration respectively.

Usually EC50 stands for the concentration needed to bring the measured effect to its halfway point.

Sequence of HEK cells stably transfected with tetracycline inducible hNR1 and hNR2A (Q12879 23-1464, other chains not shown): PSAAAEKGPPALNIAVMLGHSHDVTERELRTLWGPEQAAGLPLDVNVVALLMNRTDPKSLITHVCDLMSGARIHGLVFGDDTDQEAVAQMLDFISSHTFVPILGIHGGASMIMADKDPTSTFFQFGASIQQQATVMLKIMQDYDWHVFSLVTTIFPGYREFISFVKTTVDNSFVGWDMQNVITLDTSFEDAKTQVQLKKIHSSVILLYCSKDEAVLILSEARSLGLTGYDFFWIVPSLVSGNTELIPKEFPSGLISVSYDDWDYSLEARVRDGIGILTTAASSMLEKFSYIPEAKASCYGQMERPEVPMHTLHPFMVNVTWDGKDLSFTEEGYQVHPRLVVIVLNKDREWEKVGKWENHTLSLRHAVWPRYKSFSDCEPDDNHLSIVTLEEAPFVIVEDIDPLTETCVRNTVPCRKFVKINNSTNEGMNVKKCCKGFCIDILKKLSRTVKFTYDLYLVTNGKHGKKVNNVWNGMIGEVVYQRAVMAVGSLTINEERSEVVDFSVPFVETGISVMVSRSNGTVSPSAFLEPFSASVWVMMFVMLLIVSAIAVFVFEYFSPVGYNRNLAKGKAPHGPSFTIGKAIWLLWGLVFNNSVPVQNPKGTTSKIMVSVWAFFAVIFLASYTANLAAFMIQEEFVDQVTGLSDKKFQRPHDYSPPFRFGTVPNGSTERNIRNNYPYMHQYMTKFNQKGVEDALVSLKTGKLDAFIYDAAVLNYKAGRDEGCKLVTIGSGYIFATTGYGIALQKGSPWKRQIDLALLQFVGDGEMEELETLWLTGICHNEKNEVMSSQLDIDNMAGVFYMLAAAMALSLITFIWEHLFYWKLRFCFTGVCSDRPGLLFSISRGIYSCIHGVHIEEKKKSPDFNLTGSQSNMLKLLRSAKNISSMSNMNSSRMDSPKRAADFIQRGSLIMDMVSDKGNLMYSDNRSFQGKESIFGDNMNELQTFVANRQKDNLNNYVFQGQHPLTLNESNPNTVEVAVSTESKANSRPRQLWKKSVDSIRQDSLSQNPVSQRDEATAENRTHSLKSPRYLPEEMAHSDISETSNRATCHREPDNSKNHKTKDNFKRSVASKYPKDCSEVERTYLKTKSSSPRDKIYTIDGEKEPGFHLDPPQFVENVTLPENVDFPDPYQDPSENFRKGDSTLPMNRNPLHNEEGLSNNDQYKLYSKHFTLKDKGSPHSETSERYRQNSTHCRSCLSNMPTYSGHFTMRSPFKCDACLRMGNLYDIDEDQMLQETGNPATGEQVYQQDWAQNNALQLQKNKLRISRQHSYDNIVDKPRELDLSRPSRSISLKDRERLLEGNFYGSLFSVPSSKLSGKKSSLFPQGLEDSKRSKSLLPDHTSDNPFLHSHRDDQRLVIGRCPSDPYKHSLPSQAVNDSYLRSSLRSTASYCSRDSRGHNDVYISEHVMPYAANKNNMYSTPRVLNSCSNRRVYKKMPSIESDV

As for `Cc1ccc2nc(CN(C)c3ccccc3)cc(=O)n2c1` [Compound 2, 7-methyl-2-[(N-methylanilino)methyl]pyrido[1,2-a]pyrimidin-4-one], the Emax amounted to 75%.

Consider `CCN(Cc1cc(=O)n2cc(C)ccc2n1)c1ccccc1` [Compound 3, 2-[(N-ethylanilino)methyl]-7-methyl-pyrido[1,2-a]pyrimidin-4-one], for which the Emax turned out to be 122% and the EC50 worked out at 11.1 µM.

On to `CCN(Cc1cc(=O)n2cc(C)ccc2n1)c1ccc(F)cc1` [Compound 4, 2-[(N-ethyl-4-fluoro-anilino)methyl]-7-methyl-pyrido[1,2-a]pyrimidin-4-one], for which the Emax turned out to be 134% and the EC50 amounted to 5.2 µM.

Regarding `CCc1cccc2nc(CN(CC)c3ccc(F)cc3)cc(=O)n12` [Compound 5, 6-ethyl-2-[(N-ethyl-4-fluoro-anilino)methyl]pyrido[1,2-a]pyrimidin-4-one], the Emax came to 134% and the EC50 came out at 6.4 µM.

`CCc1cccc2nc(CN(CC)c3ccccc3)cc(=O)n12` [Compound 6, 6-ethyl-2-[(N-ethylanilino)methyl]pyrido[1,2-a]pyrimidin-4-one]: the Emax stood at 138% and the EC50 stood at 11.5 µM.

As to `CCN(Cc1cc(=O)n2c(C)cccc2n1)c1ccc(F)cc1` [Compound 7, 2-[(N-ethyl-4-fluoro-anilino)methyl]-6-methyl-pyrido[1,2-a]pyrimidin-4-one], the Emax amounted to 111% and the EC50 was 13.6 µM.

Regarding `CCN(Cc1cc(=O)n2c(OC)cccc2n1)c1ccc(F)cc1` [Compound 8, 2-[(N-ethyl-fluoro-anilino)methyl]-6-methoxy-pyrido[1,2-a]pyrimidin-4-one], the Emax stood at 117%.

Turning to `CCOc1cccc2nc(CN(CC)c3ccc(F)cc3)cc(=O)n12` [Compound 9, 6-ethoxy-2-[(N-ethyl-4-fluoro-anilino)methyl]pyrido[1,2-a]pyrimidin-4-one], the Emax was 120% and the EC50 stood at 5 µM.

Turning to `CCN(Cc1cc(=O)n2c(OC)c(C)ccc2n1)c1ccc(F)cc1` [Compound 10, 2-[(N-ethyl-4-fluoro-anilino)methyl]-6-methoxy-7-methyl-pyrido[1,2-a]pyrimidin-4-one], the Emax worked out at 51%.

With `CCOc1c(C)ccc2nc(CN(CC)c3ccc(F)cc3)cc(=O)n12` [Compound 11, 6-ethoxy-2-[(N-ethyl-4-fluoro-anilino)methyl]-7-methyl-pyrido[1,2-a]pyrimidin-4-one], the Emax worked out at 53%.

Consider `CCN(Cc1cc(=O)n2c(-c3cncnc3)cccc2n1)c1ccc(F)cc1` [Compound 12, 2-[(N-ethyl-4-fluoro-anilino)methyl]-6-pyrimidin-5-yl-pyrido[1,2-a]pyrimidin-4-one], for which the Emax came out at 161% and the EC50 was found to be 6.4 µM.

For `CCN(Cc1cc(=O)n2c(-c3ccco3)cccc2n1)c1ccc(F)cc1` [Compound 13, 2-[(N-ethyl-4-fluoro-anilino)methyl]-6-(2-furyl)pyrido[1,2-a]pyrimidin-4-one], the Emax was determined as 172% and the EC50 was 0.371 µM.

Take `CCN(Cc1cc(=O)n2c(C#N)cccc2n1)c1ccc(F)cc1` [Compound 14, 2-[(N-ethyl-4-fluoro-anilino)methyl]-4-oxo-pyrido[1,2-a]pyrimidine-6-carbonitrile]: the Emax amounted to 163% and the EC50 is 5.8 µM.

On to `CCN(Cc1cc(=O)n2c(Br)cccc2n1)c1ccc(F)cc1` [Compound 15, 6-bromo-2-[(N-ethyl-4-fluoro-anilino)methyl]pyrido[1,2-a]pyrimidin-4-one], for which the Emax turned out to be 159% and the 50% effective concentration (EC50) is 6.2 µM.

For `CCNC(=O)c1c(C)ccc2nc(COc3ccc(F)cc3)cc(=O)n12` [Compound 16, N-ethyl-2-[(4-fluorophenoxy)methyl]-7-methyl-4-oxo-pyrido[1,2-a]pyrimidine-6-carboxamide], the Emax is 159% and the EC50 came to 3.6 µM.

As for `CCNC(=O)c1c(C)ccc2nc(Cn3nc(C(F)(F)F)cc3C3CC3)cc(=O)n12` [Compound 17, 2-[[5-cyclopropyl-3-(trifluoromethyl)pyrazol-1-yl]methyl]-N-ethyl-7-methyl-4-oxo-pyrido[1,2-a]pyrimidine-6-carboxamide], the Emax amounted to 148% and the EC50 was 4 µM.

Take `CCNC(=O)c1c(C)ccc2nc(Cn3nc(C4CC4)cc3C(F)(F)F)cc(=O)n12` [Compound 18, 2-[[3-cyclopropyl-5-(trifluoromethyl)pyrazol-1-yl]methyl]-N-ethyl-7-methyl-4-oxo-pyrido[1,2-a]pyrimidine-6-carboxamide]: the Emax stood at 122% and the EC50 was determined as 16.2 µM.

Turning to `CCNC(=O)c1c(C)ccc2nc(Cc3cccc(C#N)c3F)cc(=O)n12` [Compound 19, 2-[(3-cyano-2-fluoro-phenyl)methyl]-N-ethyl-7-methyl-4-oxo-pyrido[1,2-a]pyrimidine-6-carboxamide], the Emax is 65%.

Regarding `CCNC(=O)c1cccc2nc(Cn3nc(C(F)(F)F)cc3C3CC3)cc(=O)n12` [Compound 20, 2-[[5-cyclopropyl-3-(trifluoromethyl)pyrazol-1-yl]methyl]-N-ethyl-4-oxo-pyrido[1,2-a]pyrimidine-6-carboxamide], the Emax was 116% and the EC50 is 7.4 µM.

Regarding `CCNC(=O)c1cccc2nc(Cc3cccc(C#N)c3F)cc(=O)n12` [Compound 21, 2-[(3-cyano-2-fluoro-phenyl)methyl]-N-ethyl-4-oxo-pyrido[1,2-a]pyrimidine-6-carboxamide], the Emax was 43%.

For the compound `CNC(=O)c1c(C)ccc2nc(Cc3cccc(C(F)(F)F)c3F)cc(=O)n12` [Compound 22, 2-[[2-fluoro-3-(trifluoromethyl)phenyl]methyl]-N,7-dimethyl-4-oxo-pyrido[1,2-a]pyrimidine-6-carboxamide], the Emax was found to be 69%.

As for `CNC(=O)c1c(C)ccc2nc(Cc3cccc(Cl)c3F)cc(=O)n12` [Compound 23, 2-[(3-chloro-2-fluoro-phenyl)methyl]-N,7-dimethyl-4-oxo-pyrido[1,2-a]pyrimidine-6-carboxamide], the Emax came to 59%.

`CNC(=O)c1c(C)ccc2nc(Cc3cccc(C4CC4)c3F)cc(=O)n12` [Compound 24, 2-[(3-cyclopropyl-2-fluoro-phenyl)methyl]-N,7-dimethyl-4-oxo-pyrido[1,2-a]pyrimidine-6-carboxamide]: the Emax amounted to 67%.

On to `CNC(=O)c1c(C)ccc2nc(Cc3cccc(C#N)c3F)cc(=O)n12` [Compound 25, 2-[(3-cyano-2-fluoro-phenyl)methyl]-N,7-dimethyl-4-oxo-pyrido[1,2-a]pyrimidine-6-carboxamide], for which the Emax is 51%.

For `CNC(=O)c1c(C)ccc2nc(Cc3cccc(C#N)c3F)c(F)c(=O)n12` [Compound 26, 2-[(3-cyano-2-fluoro-phenyl)methyl]-3-fluoro-N,7-dimethyl-4-oxo-pyrido[1,2-a]pyrimidine-6-carboxamide], the Emax was 34%.

As to `CCN(Cc1cc(=O)n2c(C(=O)NC)c(C)ccc2n1)c1ccc(F)cc1` [Compound 27, 2-[(N-ethyl-4-fluoro-anilino)methyl]-N,7-dimethyl-4-oxo-pyrido[1,2-a]pyrimidine-6-carboxamide], the Emax stood at 162% and the EC50 was found to be 2.7 µM.

For `CCNC(=O)c1c(C)ccc2nc(Cn3ccc(C(F)(F)F)n3)cc(=O)n12` [Compound 28, N-ethyl-7-methyl-4-oxo-2-[[3-(trifluoromethyl)pyrazol-1-yl)methyl]pyrido[1,2-a]pyrimidine-6-carboxamide], the Emax worked out at 60%.

With `CNC(=O)c1c(C)ccc2nc(Cn3nc(C(F)(F)F)cc3C3CC3)cc(=O)n12` [Compound 29, 2-[[5-cyclopropyl-3-(trifluoromethyl)pyrazol-1-yl]methyl]-N,7-dimethyl-4-oxo-pyrido[1,2-a]pyrimidine-6-carboxamide], the Emax stood at 147% and the concentration for a half-maximal effect (EC50) was determined as 5.9 µM.

For the compound `CNC(=O)c1c(C)ccc2nc(Cn3nc(C4CC4)cc3C(F)(F)F)cc(=O)n12` [Compound 30, 2-[[3-cyclopropyl-5-(trifluoromethyl)pyrazol-1-yl]methyl]-N,7-dimethyl-4-oxo-pyrido[1,2-a]pyrimidine-6-carboxamide], the Emax amounted to 101%.

Turning to `CNC(=O)c1c(C)ccc2nc(Cc3cccc(Cl)c3F)c(F)c(=O)n12` [Compound 31, 2-[(3-chloro-2-fluoro-phenyl)methyl]-3-fluoro-N,7-dimethyl-4-oxo-pyrido[1,2-a]pyrimidine-6-carboxamide], the Emax was determined as 48%.

Regarding `CCNC(=O)c1cc(C)cc2nc(Cn3nc(C(F)(F)F)cc3C3CC3)cc(=O)n12` [Compound 32], the Emax is 136%.

For `Cc1ccc2nc(Cn3nc(C(F)(F)F)cc3C3CC3)cc(=O)n2c1C(=O)NCC(F)(F)F` [Compound 33, 2-[[5-cyclopropyl-3-(trifluoromethyl)pyrazol-1-yl]methyl]-7-methyl-4-oxo-N-(2,2,2-trifluoroethyl)pyrido[1,2-a]pyrimidine-6-carboxamide], the Emax stood at 198%.
